According to PubChem BioAssay (NCI):
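Where inhibition never reached the appropriate level, the endpoint shown equals the highest concentration tested. Otherwise, values were interpolated linearly from a five-concentration, 48-hour dose response in 96-well plates. TGI marks complete inhibition of growth.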

Key:
Assay in all cases: growth of human tumour cells (NCI), 48 h
SK-MEL-28 melanoma = test system: SK-MEL-28 melanoma
UACC-62 melanoma = test system: UACC-62 melanoma
NCI-H522 lung = test system: NCI-H522 lung
HCC-2998 colon = test system: HCC-2998 colon
KM12 colon = test system: KM12 colon
SW-620 colon = test system: SW-620 colon
SR leukemia = test system: SR leukemia
UACC-257 melanoma = test system: UACC-257 melanoma
DMS 114 small cell lung = test system: DMS 114 small cell lung
HT29 colon = test system: HT29 colon
M19-MEL melanoma = test system: M19-MEL melanoma
HOP-92 NSCLC = test system: HOP-92 NSCLC
LXFL 529 NSCLC = test system: LXFL 529 NSCLC
HCT-15 colon = test system: HCT-15 colon
OVCAR-4 ovarian = test system: OVCAR-4 ovarian
HCT-116 colon = test system: HCT-116 colon
SN12C renal = test system: SN12C renal
SK-MEL-5 melanoma = test system: SK-MEL-5 melanoma
IGROV1 ovarian = test system: IGROV1 ovarian
RXF 393 renal = test system: RXF 393 renal
U251 CNS = test system: U251 CNS
SF-539 CNS = test system: SF-539 CNS
ACHN renal = test system: ACHN renal
OVCAR-8 ovarian = test system: OVCAR-8 ovarian
LOX IMVI melanoma = test system: LOX IMVI melanoma
DMS 273 small cell lung = test system: DMS 273 small cell lung
HL-60(TB) leukemia = test system: HL-60(TB) leukemia
MALME-3M melanoma = test system: MALME-3M melanoma
OVCAR-5 ovarian = test system: OVCAR-5 ovarian
CAKI-1 renal = test system: CAKI-1 renal
A549 NSCLC = test system: A549 NSCLC
SF-268 CNS = test system: SF-268 CNS
DLD-1 colon = test system: DLD-1 colon
NCI-H23 lung = test system: NCI-H23 lung
SNB-78 CNS = test system: SNB-78 CNS
M14 melanoma = test system: M14 melanoma
SNB-19 CNS = test system: SNB-19 CNS
COLO 205 colon = test system: COLO 205 colon
SK-OV-3 ovarian = test system: SK-OV-3 ovarian
RPMI-8226 leukemia = test system: RPMI-8226 leukemia
KM20L2 colon = test system: KM20L2 colon
SF-295 CNS = test system: SF-295 CNS
786-0 renal = test system: 786-0 renal
TK-10 renal = test system: TK-10 renal
UO-31 renal = test system: UO-31 renal
XF 498 CNS = test system: XF 498 CNS
EKVX NSCLC = test system: EKVX NSCLC
SNB-75 CNS = test system: SNB-75 CNS
NCI-H226 lung = test system: NCI-H226 lung
CCRF-CEM leukemia = test system: CCRF-CEM leukemia
HOP-62 NSCLC = test system: HOP-62 NSCLC
SK-MEL-2 melanoma = test system: SK-MEL-2 melanoma
K-562 leukemia = test system: K-562 leukemia
NCI-H460 lung = test system: NCI-H460 lung
HOP-18 NSCLC = test system: HOP-18 NSCLC
OVCAR-3 ovarian = test system: OVCAR-3 ovarian
MOLT-4 leukemia = test system: MOLT-4 leukemia
A498 renal = test system: A498 renal

`O=c1[nH]c2cccccc-2c1-c1nc2ccccc2[nH]1` showed a TGI (SK-MEL-28 melanoma) of 70.5 µM, a TGI (UACC-62 melanoma) of 44.9 µM and a TGI (NCI-H522 lung) of 42.3 µM. For the same compound, the TGI (HCC-2998 colon) was greater than 100 µM, the TGI (KM12 colon) was greater than 100 µM and the TGI (SW-620 colon) was greater than 100 µM. The TGI (SR leukemia) was greater than 100 µM, the TGI (UACC-257 melanoma) was greater than 100 µM and the TGI (DMS 114 small cell lung) was greater than 100 µM. The TGI (HT29 colon) was greater than 100 µM, the TGI (M19-MEL melanoma) was greater than 100 µM and the TGI (HOP-92 NSCLC) was 93.6 µM. It also gave a TGI (LXFL 529 NSCLC) greater than 100 µM, a TGI (HCT-15 colon) greater than 100 µM and a TGI (OVCAR-4 ovarian) of 51.9 µM. The TGI (HCT-116 colon) was greater than 100 µM, the TGI (SN12C renal) was greater than 100 µM and the TGI (SK-MEL-5 melanoma) was 47.6 µM. For the same compound, the TGI (IGROV1 ovarian) was greater than 100 µM, the TGI (RXF 393 renal) was 45.6 µM and the TGI (U251 CNS) was 68 µM. The TGI (SF-539 CNS) was 54.3 µM, the TGI (ACHN renal) was 51.6 µM and the TGI (OVCAR-8 ovarian) was 96.7 µM. It also gave a TGI (LOX IMVI melanoma) greater than 100 µM, a TGI (DMS 273 small cell lung) of 70.6 µM and a TGI (HL-60(TB) leukemia) greater than 100 µM. It also gave a TGI (MALME-3M melanoma) of 50.6 µM, a TGI (OVCAR-5 ovarian) greater than 100 µM and a TGI (CAKI-1 renal) greater than 100 µM. The TGI (A549 NSCLC) was greater than 100 µM, the TGI (SF-268 CNS) was 45.3 µM and the TGI (DLD-1 colon) was greater than 100 µM. It also gave a TGI (NCI-H23 lung) greater than 100 µM, a TGI (SNB-78 CNS) greater than 100 µM and a TGI (M14 melanoma) greater than 100 µM. For the same compound, the TGI (SNB-19 CNS) was 88 µM, the TGI (COLO 205 colon) was greater than 100 µM and the TGI (SK-OV-3 ovarian) was 51.2 µM. The TGI (RPMI-8226 leukemia) was greater than 100 µM, the TGI (KM20L2 colon) was greater than 100 µM and the TGI (SF-295 CNS) was greater than 100 µM. The TGI (786-0 renal) was 41 µM, the TGI (TK-10 renal) was greater than 100 µM and the TGI (UO-31 renal) was 86.6 µM. For the same compound, the TGI (XF 498 CNS) was 42.3 µM, the TGI (EKVX NSCLC) was greater than 100 µM and the TGI (SNB-75 CNS) was 30.2 µM. It also gave a TGI (NCI-H226 lung) of 35.6 µM, a TGI (CCRF-CEM leukemia) greater than 100 µM and a TGI (HOP-62 NSCLC) of 94.8 µM. It also gave a TGI (SK-MEL-2 melanoma) of 77.1 µM and a TGI (K-562 leukemia) greater than 100 µM.
In the case of `Nc1nc(NC(=O)C2=NS(=O)(=O)c3cc(S(N)(=O)=O)c(Cl)cc3N2)n[nH]1`, the TGI (SK-MEL-28 melanoma) is reported as greater than 100 µM, the TGI (UACC-62 melanoma) is reported as greater than 100 µM and the TGI (NCI-H522 lung) is reported as greater than 100 µM. For the same compound, the TGI (HCC-2998 colon) was greater than 100 µM, the TGI (KM12 colon) was greater than 100 µM and the TGI (SW-620 colon) was greater than 100 µM. For the same compound, the TGI (SR leukemia) was greater than 100 µM, the TGI (UACC-257 melanoma) was greater than 100 µM and the TGI (DMS 114 small cell lung) was greater than 100 µM. For the same compound, the TGI (HT29 colon) was greater than 100 µM, the TGI (M19-MEL melanoma) was greater than 100 µM and the TGI (HOP-92 NSCLC) was greater than 100 µM. For the same compound, the TGI (LXFL 529 NSCLC) was greater than 100 µM, the TGI (HCT-15 colon) was greater than 100 µM and the TGI (OVCAR-4 ovarian) was greater than 100 µM. For the same compound, the TGI (HCT-116 colon) was greater than 100 µM, the TGI (SN12C renal) was greater than 100 µM and the TGI (SK-MEL-5 melanoma) was greater than 100 µM. The TGI (IGROV1 ovarian) was greater than 100 µM, the TGI (NCI-H460 lung) was greater than 100 µM and the TGI (RXF 393 renal) was greater than 100 µM. For the same compound, the TGI (U251 CNS) was greater than 100 µM, the TGI (SF-539 CNS) was greater than 100 µM and the TGI (ACHN renal) was greater than 100 µM. For the same compound, the TGI (LOX IMVI melanoma) was greater than 100 µM, the TGI (MALME-3M melanoma) was greater than 100 µM and the TGI (OVCAR-5 ovarian) was greater than 100 µM. It also gave a TGI (CAKI-1 renal) greater than 100 µM, a TGI (HOP-18 NSCLC) greater than 100 µM and a TGI (A549 NSCLC) greater than 100 µM. For the same compound, the TGI (OVCAR-3 ovarian) was greater than 100 µM, the TGI (SF-268 CNS) was greater than 100 µM and the TGI (DLD-1 colon) was greater than 100 µM. It also gave a TGI (NCI-H23 lung) greater than 100 µM, a TGI (SNB-78 CNS) greater than 100 µM and a TGI (M14 melanoma) greater than 100 µM. It also gave a TGI (SNB-19 CNS) greater than 100 µM, a TGI (COLO 205 colon) greater than 100 µM and a TGI (SK-OV-3 ovarian) greater than 100 µM. It also gave a TGI (RPMI-8226 leukemia) greater than 100 µM, a TGI (KM20L2 colon) greater than 100 µM and a TGI (SF-295 CNS) greater than 100 µM. It also gave a TGI (786-0 renal) greater than 100 µM, a TGI (TK-10 renal) greater than 100 µM and a TGI (UO-31 renal) greater than 100 µM. It also gave a TGI (MOLT-4 leukemia) greater than 100 µM, a TGI (XF 498 CNS) greater than 100 µM and a TGI (EKVX NSCLC) greater than 100 µM. The TGI (SNB-75 CNS) was greater than 100 µM, the TGI (NCI-H226 lung) was greater than 100 µM and the TGI (CCRF-CEM leukemia) was greater than 100 µM. For the same compound, the TGI (HOP-62 NSCLC) was greater than 100 µM, the TGI (A498 renal) was greater than 100 µM and the TGI (K-562 leukemia) was greater than 100 µM.
